Experimental findings from patent US10577381B2, “Prodrugs of 2,4-pyrimidinediamine compounds and their uses” (Rigel Pharmaceuticals, Inc., priority 2005, dated 2020) are described below.

Series [1] in a line: Water solubility in aqueous buffer. It counts as physicochemical.
Series [2] is described as follows: Stability under acidic and neutral conditions at 37° C. It counts as physicochemical. Conditions: FIG. 8.
Series [3] can be described thus: Conversion of prodrug to drug in microsome preparations. The class given is in vitro ADME, rat. From the text:
(§1) Although phosphate-containing prodrugs suitable for oral administration are of interest, skilled artisans will appreciate that prodrugs including phosphate-containing progroups R^p can be administered via other routes of administration, as phosphatases are distributed throughout the body. […] Thus, the only requirement is that the particular phosphate-containing progroup R^P selected should be removable under the conditions of intended use.

Series [4] can be described thus: Stability / hydrolysis in rat plasma. The class given is in vitro ADME. Conditions: FIG. 10.
Excerpt: as §1
The presence of Phosphatase activity in rat plasma was confirmed using p-nitrophenyl phosphate—a known substrate for phosphatase.

The nature of series [5]: Pharmacokinetics after IV and oral dosing in rats. The class given is in vivo, Sprague-Dawley rats. The protocol:
Prodrug Compound 4 was tested for oral bioavailability. For the study, the prodrug was dissolved in various vehicles (e.g. PEG 400 solution and CMC suspension) for intravenous and oral dosing in the rats. […] Following administration of the prodrug and/or drug, plasma samples were obtained and extracted. The plasma concentrations of the prodrug and/or drug were determined by high performance liquid chromatography/tandem mass spectrometry (LC/MS/MS) methods. Pharmacokinetic analyses were performed based on the plasma concentration data. The pharmacokinetic parameters of interest include Clearance (CL), Volume of distribution at steady-state (Vss), terminal half-life (t1/2), and oral bioavailability (% F).
Referring to FIG. 4, PK profiles are shown for IV and PO administration in Spraque-Dawley rats. For IV administration, Compound 4 was dissolved in PEG-400 and administered at a dose of 1 mg/kg.
FIG. 5 summarizes the PK parameters for the study described in FIG. 4.
FIG. 11 illustrates the absorption of prodrug Compound 4 from different vehicles.

Series [6] relates to Cord-Blood Derived Primary Human Mast Cells (CHMC). The experiment in a line: FcεRI-dependent activation of CHMC, tryptase released upon degranulation. Conditions: Mast cell, activity of tryptase released upon degranulation. The class given is cell-based.
Series [7] concerns CHMCs. The experiment in a line: Ionomycin-induced degranulation of CHMCs. The class given is cell-based, Human.
In series [8] the test system is LTC4. The experiment in a line: FcεRI-dependent production and release of LTC4. The class given is cell-based. Conditions: Homo sapiens.
The subject of series [9] is cytokines. The experiment in a line: FcεRI-dependent production and release of cytokines. The class given is cell-based. Conditions: Homo sapiens; range over cytokines; read-out: EC50, FcεRI-dependent production and release of all cytokines tested.
The test system of series [10] is IC-mediated vascular edema (Arthus reaction). The experiment in a line: Reverse Passive Arthus (RPA) reaction. It counts as in vivo, rat. From the text: IC-mediated acute inflammatory tissue injury is implicated in a variety of human autoimmune diseases, including vasculitis, serum sickness, systemic lupus erythematosus, RA, and glomerulonephritis. The classical experimental model for IC-mediated tissue injury is the Reverse Passive Arthus (RPA) reaction. Intravenous injection of antigen (ovalbumin, OVA) following intradermal injection of antibodies specific to OVA (rabbit anti-OVA IgG) results in perivascular deposition of IC and a rapid inflammatory response characterized by edema, neutrophil infiltration, and hemorrhage at the injection sites (Szalai, et al., 2000, J. Immunol. 164(1):463-468).

Series [11] concerns collagen antibody-induced arthritis. The experiment in a line: Collagen antibody-induced arthritis (CAIA). The class given is in vivo, Balb/c mice. The text has this:
This passive model differs from the traditional rodent collagen-induced arthritis (CIA) in that disease symptoms appear quickly (developing within 24-48 hrs after an IV-injection of antibodies), arthritis is inducible in both CIA-susceptible and CIA-resistant mouse strains, and it allows evaluation of inflammation that is independent of antibody production. CAIA was induced in Balb/c mice by intravenous injection of Arthrogen-CIA® Monoclonal Antibody Blend (Chemicon International, Inc., Temecula, Calif.) via the tail vein, followed 2 days later by an intraperitoneal injection of LPS. […] The severity of the arthritis in hind-paws was scored daily (scale of 0-4 per paw, sum of scores for both hind paws).

In series [12] the test system is collagen-induced arthritis. The experiment in a line: Collagen-induced arthritis (CIA). The class given is in vivo, Syngeneic LOU rats. The text has this:
One of the experimental models for IC-mediated tissue injury is the CIA in rodents (Kleinau et al., 2000, J. Exp. Med. 191:1611-1616). Injection of type II collagen (CII) into rodents produces an immune reaction that characteristically involves inflammatory destruction of cartilage and bone of the distal joints with concomitant swelling of surrounding tissues. CIA in rats is commonly used to evaluate compounds that might be of potential use as drugs for treatment of rheumatoid arthritis and other chronic inflammatory conditions and is induced in susceptible strains of either mice or rats by injection of CII in incomplete Freund's adjuvant (IFA). Administration of this emulsion gives rise to polyarthritis, characterized by synovial hyperplasia, infiltration of mononuclear cells, pannus formation, and destruction of cartilage and bone. […] Syngeneic LOU rats were immunized on Day 0 with native chicken CII/IFA. Oral treatment began at the onset of arthritis symptoms (Day 10). […] Hind limbs were scored daily for clinical arthritis severity using a standardized method based on the degree of joint inflammation. High resolution digital radiographs of hind limbs were obtained at the conclusion of the study (Day 28). These limbs were also analyzed for histopathologic changes. IgG antibodies to native CII were measured in quadruplicate by ELISA. […] Brahn. 2004). Blinded composite histopathologic studies confirmed the regression of pannus and erosions: […] Antibodies to native CII were not decreased in Compound 1-treated rats.

Series [13] can be described thus: Safety pharmacology: cardiovascular study. It counts as in vivo. Conditions: 50 mg/kg. The protocol:
(§2) GLP toxicology studies included negative mutagenicity and clastogenicity studies (Ames, chromosomal aberration, and mouse micronucleus). […] The No Observed Adverse Effect Level (NOAEL) is 10-30 mg/kg/day for rats and 100 mg/kg/day for monkeys.

Series [14] in a line: Safety pharmacology: CNS (Irwin) study. The class given is in vivo. Conditions: 50 mg/kg. The procedure:
as §2

The nature of series [15]: GLP mutagenicity and clastogenicity studies (Ames, chromosomal aberration, mouse micronucleus). The procedure: as §2
The conditions of series [16]: monkey, in vivo. The procedure:
as §2

For series [17] the following is noted: rat, in vivo.
The mark [18] stands for this setting: water solubility, aqueous buffer under physiological conditions, read-out: Solubility.

Structures are written as SMILES. In brackets after ≈: the same amount, converted by molar mass. Entries after “also recorded” stand apart in the source; their conditions may differ. Like-named read-outs stand apart in the source and are kept apart here. Some results are limits rather than exact numbers.

For `COc1cc(Nc2ncc(F)c(Nc3ccc4c(n3)N(COP(=O)(O)O)C(=O)C(C)(C)O4)n2)cc(OC)c1OC` [Compound 4, N4-(2,2-dimethyl-4-[(dihydrogenphosphonoxy)methyl]-3-oxo-5-pyrido[1,4]oxazin-6-yl)-5-fluoro-N2-(3,4,5-trimethoxyphenyl)-2,4-pyrimidinediamine], the “Solubility of prodrug relative to active drug Compound 1” value in series [1] (same conditions, Compound 4 vs Compound 1) was “approximately 2000 times”. The solubility in series [1] (setting [18]) was above 5000 µg/mL. Further, the stability of prodrug result in series [2] is recorded as “stable”. Besides, the “conversion of prodrug Compound 4 to drug Compound 1” value is “failed to convert” in series [3] (microsomal preparations obtained from Xenotech, FIG. 9); “metabolize to the active drug Compound 1; also recorded: conversion of Compound 4 to Compound 1 was observed” in [3] (rat intestinal and hepatic microsomes from a different source (data not shown)). In addition, the “stability in rat plasma, hydrolysis to drug Compound 1” value in series [4] is given as “metabolize to the active drug Compound 1; also recorded: unstable”. Further, in series [5] (Compound 4 given orally in PEG-400), the “plasma levels of drug metabolite Compound 1 after dosing prodrug” value is on record as “high levels”. The “disappearance / clearance of prodrug from plasma” value in series [5] (IV, 1 mg/kg in PEG-400, 1 mg/kg) is “Rapid disappearance; also recorded: rapidly cleared”. Moreover, the “systemic presence of prodrug after oral dosing” value in series [5] (given orally in PEG-400) is listed as “no prodrug Compound 4 was present systemically”. In [5] (oral, Compound 1 2.5 mg/kg in PEG-400 vs Compound 4 4 mg/kg in PEG-400, FIG. 6), the “AUC/dose of drug Compound 1 exposure (absorption), prodrug vs drug” value is given as “nearly identical”. In addition, in series [5] (oral, rats, PEG-400 and carboxymethylcellulose solutions, powder in hard gelatin capsules, FIG. 11), the “absorption from different vehicles” value was “absorbed equally well; also recorded: not dependent on formulation”.

Regarding `COc1cc(Nc2ncc(F)c(Nc3ccc4c(n3)NC(=O)C(C)(C)O4)n2)cc(OC)c1OC` [Compound 1, N4-(2,2-dimethyl-3-oxo-4H-5-pyrido[1,4]oxazin-6-yl)-5-fluoro-N2-(3,4,5-trimethoxyphenyl)-2,4-pyrimidinediamine], the solubility in [1] (aqueous buffer, phosphate buffer at pH=7.5, data not shown, read-out: measured solubility) is below 1 µg/mL. For the same compound, the solubility in [1] (setting [18]) lay in the range of 1 to 2 µg/mL (≈ 2.13 to 4.25 µM). In addition, the EC50 in [6] was around 43 nM. In [7], the “inhibition of ionomycin-induced degranulation” value is listed as “does not inhibit”. In series [8], this compound returned an EC50 of 39 nM. In [9], the EC50 fell in the range of 158 to 462 nM. Moreover, the inhibition at 10 mg/kg in [10] (Rattus norvegicus, 10 mg/kg oral, compared with vehicle control, read-out: inhibition of extravascular leakage of Evans blue dye (OD610) from tissue biopsies) is 80%. Moreover, the “cutaneous RPA reaction and inflammatory edema” value in series [10] (single oral treatment one hour prior to antigen/antibody administration) was “reduced the cutaneous RPA reaction and inflammatory edema in a dose-dependent manner”. Besides, in [11] (lower dose levels, differences not significant (p>0.05)), the “arthritis severity, disease incidence, time of onset” value is “trend toward reduced arthritis severity, disease incidence, and time of onset”. Besides, the “clinical arthritis vs vehicle” value in series [11] (oral, b.i.d., p<0.05) is listed as “significantly reduced clinical arthritis”. Also, in [12] (30 mg/kg q.d. p.o., evident within 7 days after initiation of therapy, p<0.05), the arthritis severity entry is “significant reduction”. In [12] (30 mg/kg, p<0.001 vs vehicle), the “Mean modified Mankin scores (histopathology, pannus and erosions)” value was 3.7±0.9. In addition, the clinical score in series [12] (Day 28, 30 mg/kg q.d. p.o., p<0.001 vs vehicle) worked out at 2.54±0.98. Moreover, the “joint damage, blinded radiographs” value in series [12] (Day 28, p<0.02 vs vehicle) amounted to 1.63±0.67. Further, the cardiovascular effect result in [13] was “slight reduction in heart rate and increase in RR interval”. Besides, the behavioral effect result in [14] was “slight effect on a few behavioral parameters”. Also, in series [15], the mutagenicity and clastogenicity result is recorded as “negative”. Also, in [16], the “effect on hematology and bone marrow cellularity” value is reported as “reversible effect”. Moreover, in series [17], the “CD45RA+ cells (immunophenotyping)” value is “significant increase”; the Histopathology result was “mild reductions in marrow cellularity”; the “effect on hematology, liver transaminase (mild), spleen and thymus size, bone marrow cellularity” value is given as “reversible effect”; the “humoral immunity, anti-KLH antibody assessment” value is listed as “no evidence for untoward effects”. For the same compound, in series [17], the “percentage of CD3+ cells (immunophenotyping)” value is recorded as “significant decrease”.

The solubility is the dissolved amount per volume that the medium holds. A word on the EC50: it is the concentration needed to bring the measured effect to its halfway point. By inhibition is commonly meant the share of the control response that was lost under treatment.
